A short description of series [1]: Cytotoxicity against chicken embryo fibroblasts infected with Influenza A virus (A/Chicken/Shandong/LY/08(H9N2)) preincubated for 1 hr followed by viral-infection measured after 2 days by MTS assay. The series is classed as cell-based, Gallus gallus, Fibroblast.
Series [2] deals with T1, Neuraminidase (Influenza A virus, UniProt B4URF0). The series can be described thus: Inhibition of Influenza A virus (A/Chicken/Shandong/LY/08(H9N2)) neuraminidase using 4-MU-NANA as substrate incubated for 5 mins prior to substrate addition measured after 30 to 60 mins by fluorescence assay. Also noted: species or system Influenza A virus (A/chicken/Shandong/LY/2008(H9N2)).

The target in series [3] is T1, Neuraminidase. The series is described as follows: Inhibition of influenza A virus A/duck/China/QJ/01(H5N1) neuraminidase using 4-MU-NANA as substrate incubated for 5 mins prior to substrate addition measured after 30 to 60 mins by fluorescence assay.
Series [4] relates to Influenza A virus. The series is described as follows: Antiviral activity against Influenza A virus (A/Chicken/Shandong/LY/08(H9N2)) infected in chicken embryo fibroblasts assessed as protection against virus-induced cytopathic effect preincubated for 1 hr followed by viral-infection measured after 2 days by MTS assay. The series is classed as functional, organism-based, Influenza A virus (A/chicken/Shandong/LY/2008(H9N2)). In general terms: Protection from cytopathic effect is a common read-out in antiviral testing.

Series [5] addresses T1, Neuraminidase. The series is described as follows: Non competitive inhibition of Influenza A virus (A/Chicken/Shandong/LY/08(H9N2)) neuraminidase using 4-MU-NANA as substrate incubated for 5 mins prior to substrate addition measured after 30 to 60 mins by Lineweaver-Burk plot analysis. Also noted: species or system Influenza A virus (A/chicken/Shandong/LY/2008(H9N2)).
The target in series [6] is T1, Neuraminidase. The series can be described thus: Non competitive inhibition of influenza A virus A/duck/China/QJ/01(H5N1) neuraminidase using 4-MU-NANA as substrate incubated for 5 mins prior to substrate addition measured after 30 to 60 mins by Lineweaver-Burk plot analysis.

Where only a bound is given, the exact number is not on record here.

The CC50 is the concentration that lowers cell viability or growth by half. A higher CC50 goes with better tolerance by the cells. The term IC50 denotes the concentration needed to halve the response being measured. Lower therefore signals greater potency. In general, EC50 refers to the concentration that produces a half-maximal response. What is called Ki is a dissociation constant, usually derived from enzyme kinetics or from competition with a known ligand. Lower therefore signals tighter binding.

On to `CCC(CC)C(=O)Nc1cc(NC(C)=O)c(NC(=O)CCc2ccc(O)c(O)c2)cc1OCC(=O)O`, for which, in series [1], the cytotoxic concentration (CC50) at 48 h is 47.2 µM. Besides, the IC50 in series [2] turned out to be 15.8 µM; in series [3] it was 42.7 µM.
For `CCC(CC)C(=O)Nc1cc(NC(C)=O)c(NC(=O)/C=C/c2ccc(O)c(O)c2)cc1OCC(=O)O`, the CC50 at 48 h in series [1] is over 100 µM. Besides, the concentration for a half-maximal effect (EC50) in series [4] worked out at 13.8 µM. In series [5], this molecule gave a Ki of 2.7 µM. In addition, the half-inhibitory concentration (IC50) was found to be 3.2 µM in series [2] and 10.7 µM in series [3].
Consider `CCC(CC)C(=O)Nc1ccc(OCC(=O)O)c(NC(=O)C(CC)CC)c1`, for which the IC50 in series [2] was over 100 µM.
On the same count and under the same terms, under `CCC(CC)C(=O)Nc1cc(N)ccc1OCC(=O)O` stands over 100 µM.
`CCC(CC)CN(C(=O)/C=C/c1ccc(O)c(O)c1)c1ccc(OCC(=O)O)c(NC(=O)C(CC)CC)c1` registered a CC50 at 48 h in series [1] of over 100 µM. The EC50 in series [4] amounted to 56.4 µM. In addition, the results for the 50% inhibitory concentration (IC50) in series [2] and in series [3] were 25.2 µM and 11.3 µM, respectively.
In the case of `CCC(CC)C(=O)Nc1cc(NS(=O)(=O)c2ccc(C)cc2)ccc1OCC(=O)O`, the IC50 in series [2] came out at 78.6 µM; in series [3], 86.7 µM.
Taken in the same sequence, the figures for `CCC(CC)C(=O)Nc1cc(NC(=O)NCc2ccccc2)ccc1OCC(=O)O` were 49.7 µM and 55.6 µM.
As for `CCC(CC)C(=O)Nc1cc(NC(=O)[C@@H](NC(=O)/C=C/c2ccc(O)c(O)c2)C(C)C)ccc1OCC(=O)O`, in series [1], it took 70.4 µM to reach half-maximal cytotoxicity (CC50 at 48 h). In series [4], the EC50 is 22.9 µM. For the same molecule, the half-inhibitory concentration (IC50) was 9.4 µM in series [2] and 16.6 µM in series [3].
`CCC(CC)C(=O)Nc1cc(NC(=O)N[C@H](CC)CO)ccc1OCC(=O)O` gave a concentration for half-maximal inhibition (IC50) in series [2] of over 100 µM.
Molecule `C#CCNC(=O)Nc1ccc(OCC(=O)O)c(NC(=O)C(CC)CC)c1` yielded an IC50 in series [2] of 89.8 µM.
`CCC(CC)C(=O)Nc1cc(NC(=O)[C@H](CC(C)C)NC(=O)/C=C/c2ccc(O)c(O)c2)ccc1OCC(=O)O` came in with a CC50 at 48 h in series [1] of 89.7 µM. Also, in series [4], the 50% effective concentration (EC50) was found to be 13.5 µM. The results for the IC50 in series [2] and in series [3] were 8.5 µM and 14 µM, respectively.
For the molecule `CCC(CC)C(=O)Nc1cc(N(Cc2cccs2)C(=O)/C=C/c2ccc(O)c(O)c2)ccc1OCC(=O)O`, the CC50 at 48 h in series [1] amounted to 87.6 µM. For the same molecule, the half-maximal inhibitory concentration (IC50) in series [2] came out at 24.1 µM; in series [3], 16.4 µM.
As for `CCC(CC)C(=O)Nc1cc(NC(=O)C(C)C)c(NC(=O)CCc2ccc(O)c(O)c2)cc1OCC(=O)O`, the results for the concentration for half-maximal inhibition (IC50) in series [2] and in series [3] were 14.2 µM and 38.2 µM, respectively.
In the case of `CCC(CC)C(=O)Nc1cc(NC(=O)C(C)C)c(N)cc1OCC(=O)O`, the IC50 in series [2] was determined as 54.3 µM; in series [3], 61.2 µM.
In the case of `CCC(CC)C(=O)Nc1cc(NC(=O)c2ccco2)ccc1OCC(=O)O`, the IC50 in series [2] was over 100 µM.
With `CCC(CC)C(=O)Nc1cc(NC(=O)[C@H](C)NC(=O)/C=C/c2ccc(O)c(O)c2)ccc1OCC(=O)O`, in series [1], the CC50 at 48 h was over 100 µM. In series [4], the EC50 was found to be 25.4 µM. The IC50 in series [2] is 7.9 µM; in series [3], 16.1 µM. Besides, the inhibition constant (Ki) in series [6] was 9.5 µM.
`CCC(CC)C(=O)Nc1cc(NC(=O)CNC(=O)/C=C/c2ccc(O)c(O)c2)ccc1OCC(=O)O` returned a 50% cytotoxic concentration (CC50) at 48 h in series [1] of over 100 µM. In addition, the half-maximal effective concentration (EC50) in series [4] amounted to 33.6 µM. For the same molecule, the IC50 was determined as 9.2 µM in series [2] and 17.6 µM in series [3].
For `CCC(CC)C(=O)Nc1cc(NC(C)=O)c(N)cc1OCC(=O)O`, the IC50 in series [2] is 46.4 µM; in series [3], 58.5 µM.
Turning to `CCC(CC)C(=O)Nc1cc(NC(=O)C(C)C)c(NC(=O)/C=C/c2ccc(O)c(O)c2)cc1OCC(=O)O`, the CC50 at 48 h in series [1] was over 100 µM. Further, the EC50 in series [4] was determined as 14.5 µM. In addition, the IC50 in series [2] was found to be 5.8 µM; in series [3], 14.2 µM.
Consider `CCC(CC)C(=O)Nc1cc(N(Cc2ccccc2)C(=O)/C=C/c2ccc(O)c(O)c2)ccc1OCC(=O)O`, for which the CC50 at 48 h in series [1] is 78.2 µM. Further, the values for the half-maximal inhibitory concentration (IC50) in series [2] and in series [3] were 16 µM and 11.4 µM, respectively. The inhibitory constant (Ki) in series [6] amounted to 32.5 µM.
For the molecule `CCC(CC)C(=O)Nc1cc(NC(=N)N)ccc1OCC(=O)O`, the IC50 in series [2] is over 100 µM.
The molecule `CCC(CC)C(=O)Nc1cc(NC(=O)C(C)C)c(NC(=N)N)cc1OCC(=O)O` displayed a 50% inhibitory concentration (IC50) in series [2] of 83.2 µM.
Regarding `CCC(CC)C(=O)Nc1cc(NC(C)=O)c(NC(=N)N)cc1OCC(=O)O`, the IC50 in series [2] stood at 69.1 µM; in series [3], 75.8 µM.
In series [1], `CCC(CC)C(=O)Nc1cc(NC(=O)[C@H](Cc2ccccc2)NC(=O)/C=C/c2ccc(O)c(O)c2)ccc1OCC(=O)O` registered a CC50 at 48 h of 68.3 µM. The IC50 in series [2] turned out to be 9.8 µM; in series [3], 16.2 µM.
